Measurements as given in PubChem BioAssay (NCI).
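Test compounds were applied to cells in 96-well plates for 48 hours at 5 doses. Abbreviation: GI50, concentration required for 50% inhibition of growth. The concentration for full growth arrest is given as TGI.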

Columns and labels:
Assay in all cases: DTP human tumour cell line panel, 48 h
[1] = tested on: CAKI-1 renal
[2] = tested on: HOP-62 NSCLC
[3] = tested on: SK-MEL-5 melanoma
[4] = tested on: UACC-62 melanoma
[5] = tested on: UACC-257 melanoma
[6] = tested on: HT29 colon
[7] = tested on: UO-31 renal
[8] = tested on: MDA-MB-435
[9] = tested on: OVCAR-8 ovarian
[10] = tested on: MDA-MB-231 breast
[11] = tested on: T-47D breast
[12] = tested on: RPMI-8226 leukemia
[13] = tested on: SK-MEL-28 melanoma
[14] = tested on: HS 578T breast
[15] = tested on: NCI-H226 lung
[16] = tested on: SR leukemia
[17] = tested on: IGROV1 ovarian
[18] = tested on: NCI-H522 lung
[19] = tested on: ACHN renal
[20] = tested on: 786-0 renal
[21] = tested on: LOX IMVI melanoma
[22] = tested on: M14 melanoma
[23] = tested on: NCI/ADR-RES ovarian
[24] = tested on: SF-539 CNS
[25] = tested on: KM12 colon
[26] = tested on: HCT-116 colon
[27] = tested on: BT-549 breast
[28] = tested on: NCI-H460 lung
[29] = tested on: HCT-15 colon
[30] = tested on: SNB-75 CNS
[31] = tested on: HL-60(TB) leukemia
[32] = tested on: MCF7 breast
[33] = tested on: SF-295 CNS
[34] = tested on: SNB-19 CNS
[35] = tested on: OVCAR-3 ovarian
[36] = tested on: SF-268 CNS
[37] = tested on: EKVX NSCLC
[38] = tested on: A498 renal
[39] = tested on: HOP-92 NSCLC
[40] = tested on: DU-145 prostate
[41] = tested on: OVCAR-5 ovarian
[42] = tested on: CCRF-CEM leukemia
[43] = tested on: COLO 205 colon
[44] = tested on: RXF 393 renal
[45] = tested on: U251 CNS
[46] = tested on: A549 NSCLC
[47] = tested on: SK-OV-3 ovarian
[48] = tested on: SK-MEL-2 melanoma
[49] = tested on: PC-3 prostate
[50] = tested on: HCC-2998 colon
[51] = tested on: SW-620 colon
[52] = tested on: TK-10 renal
[53] = tested on: OVCAR-4 ovarian
[54] = tested on: K-562 leukemia
[55] = tested on: NCI-H23 lung
[56] = tested on: SN12C renal
[57] = tested on: MALME-3M melanoma
[58] = tested on: MOLT-4 leukemia

Structure (SMILES): COc1cc(C2CC(c3cccc(Nc4ccnc5cc(Cl)ccc45)c3)=NN2C=O)cc(OC)c1OC (centres undefined)
- GI50 [1]: 563 nM
- TGI [1]: 2470 nM
- GI50 [2]: 846 nM
- TGI [2]: 8310 nM
- GI50 [3]: 454 nM
- TGI [3]: 2340 nM
- GI50 [4]: 621 nM
- TGI [4]: 2660 nM
- GI50 [5]: 743 nM
- TGI [5]: 5600 nM
- GI50 [6]: 364 nM
- TGI [6]: 1230 nM
- GI50 [7]: 1320 nM
- TGI [7]: 4690 nM
- GI50 [8]: 157 nM
- TGI [8]: 466 nM
- GI50 [9]: 1640 nM
- TGI [9]: > 28300 nM
- GI50 [10]: 1360 nM
- TGI [10]: 13700 nM
- GI50 [11]: 805 nM
- TGI [11]: 5170 nM
- GI50 [12]: 3720 nM
- TGI [12]: > 23000 nM
- GI50 [13]: 961 nM
- TGI [13]: 4260 nM
- GI50 [14]: 545 nM
- TGI [14]: 9360 nM
- GI50 [15]: 1980 nM
- TGI [15]: 6150 nM
- GI50 [16]: 318 nM
- TGI [16]: 1700 nM
- GI50 [17]: 2120 nM
- TGI [17]: > 43200 nM
- GI50 [18]: 502 nM
- TGI [18]: 6680 nM
- GI50 [19]: 1270 nM
- TGI [19]: 5320 nM
- GI50 [20]: 1120 nM
- TGI [20]: 5160 nM
- GI50 [21]: 791 nM
- TGI [21]: 7150 nM
- GI50 [22]: 319 nM
- TGI [22]: 2000 nM
- GI50 [23]: 1300 nM
- TGI [23]: 6300 nM
- GI50 [24]: 1020 nM
- TGI [24]: 3890 nM
- GI50 [25]: 502 nM
- TGI [25]: > 23400 nM
- GI50 [26]: 381 nM
- TGI [26]: 1640 nM
- GI50 [27]: 419 nM
- TGI [27]: 1700 nM
- GI50 [28]: 436 nM
- TGI [28]: > 40400 nM
- GI50 [29]: 626 nM
- TGI [29]: > 100000 nM
- GI50 [30]: 310 nM
- TGI [30]: 2300 nM
- GI50 [31]: 243 nM
- TGI [31]: 530 nM
- GI50 [32]: 354 nM
- TGI [32]: 10200 nM
- GI50 [33]: 357 nM
- TGI [33]: 3610 nM
- GI50 [34]: 2520 nM
- TGI [34]: > 100000 nM
- GI50 [35]: 408 nM
- TGI [35]: 1350 nM
- GI50 [36]: 1490 nM
- TGI [36]: > 34800 nM
- GI50 [37]: 1300 nM
- TGI [37]: 26100 nM
- GI50 [38]: 273 nM
- TGI [38]: 1630 nM
- GI50 [39]: 2750 nM
- TGI [39]: 85400 nM
- GI50 [40]: 1970 nM
- TGI [40]: 11800 nM
- GI50 [41]: 3500 nM
- TGI [41]: 20300 nM
- GI50 [42]: 462 nM
- GI50 [43]: 635 nM
- TGI [43]: 7150 nM
- GI50 [44]: 1380 nM
- TGI [44]: 5290 nM
- GI50 [45]: 393 nM
- TGI [45]: 3460 nM
- GI50 [46]: 571 nM
- TGI [46]: 10000 nM
- GI50 [47]: 1350 nM
- TGI [47]: 4140 nM
- GI50 [48]: 504 nM
- TGI [48]: 3080 nM
- GI50 [49]: 979 nM
- TGI [49]: 19200 nM
- GI50 [50]: 2310 nM
- TGI [50]: 24400 nM
- GI50 [51]: 401 nM
- GI50 [52]: 1120 nM
- TGI [52]: 4450 nM
- GI50 [53]: 1130 nM
- TGI [53]: 6210 nM
- GI50 [54]: 435 nM
- TGI [54]: 12600 nM
- GI50 [55]: 1400 nM
- TGI [55]: 21500 nM
- GI50 [56]: 1140 nM
- TGI [56]: 27200 nM
- GI50 [57]: 825 nM
- TGI [57]: 5140 nM
- GI50 [58]: 595 nM
- TGI [58]: 4440 nM
